Data on 12 compounds can be found in patent US12371454B2, “Cyclic peptide compound having Kras inhibitory action” (priority 2019, dated 2025).

Starred links: 1 amine or outer side, 2 acyl side, 3 side chain; linkers in the order of their positions; H or OH if unused. Positions of bridges follow the written chain, without caps; N, C: chain ends. Non-standard residues stand in square brackets, D forms with d. Residues, ends and D or L forms follow the SMILES beside them. *: point of attachment. hPhe(3-Cl-4-CF3) = N[C@@H](CCc1ccc(C(F)(F)F)c(Cl)c1)C(=O)O; hPhe(3-F,4-CF3) = N[C@@H](CCc1ccc(C(F)(F)F)c(F)c1)C(=O)O; NEtAsp = CCN([C@@H](CC(=O)[*:3])C(=O)[*:2])[*:1]; 3Oxa8azabicyclo(3.2.1)octane = C1CC2COCC1N2*; NMeAbu(4,4,4-F3) = CN[C@@H](CC(F)(F)F)C(=O)O; NMePhe(3-Me) = CN[C@@H](Cc1cccc(C)c1)C(=O)O; NMeAla(cPent) = CN[C@@H](CC1CCCC1)C(=O)O; NMeGly(cPent) = CN[C@H](C(=O)O)C1CCCC1; NMe4Pal = CN[C@@H](Cc1ccncc1)C(=O)O; NMeGly(cBu) = CN[C@H](C(=O)O)C1CCC1; NMeCha = CN[C@@H](CC1CCCCC1)C(=O)O; NMeChg = CN[C@H](C(=O)O)C1CCCCC1; NMeD = CN[C@@H](CC(=O)O)C(=O)O; NMeL = CN[C@@H](CC(C)C)C(=O)O; NMeNva = CCC[C@H](NC)C(=O)O; NMeV = CN[C@H](C(=O)O)C(C)C; Trifluoroethyl = FC(F)(F)C*; d(β3hA) = C[C@@H](N)CC(=O)O; NMeS = CN[C@@H](CO)C(=O)O; Morpholide = C1CN(*)CCO1; NMeA = CN[C@@H](C)C(=O)O; Piperidide = C1CCN(*)CC1; Ac5c = NC1(C(=O)O)CCCC1; Aze = O=C(O)[C@@H]1CCN1; Ac4c = NC1(C(=O)O)CCC1; Sar = CNCC(=O)O; Propyl = CCC*

The target in assay [1] is T1, Kras and SOS1 (biotin-tagged human Kras loaded with GDP, His-tagged human SOS1) (Homo sapiens, UniProt P01116, G12D).
T1 construct: made in house; host or cells: E. coli (stated for Kras only)
The experiment in a line: Protein-protein interaction inhibition between Kras and SOS1 (KrasGl2D-SOS PPI) using AlphaScreen. It counts as binding. Conditions: AlphaScreen; biotin-tagged human Kras loaded with GDP, His-tagged human SOS1; read-out: KRAS G12D-SOS PPI IC50. The gist of the method: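 Energy transfer from nickel-chelate donor beads bound to His-SOS1 to streptavidin acceptor beads bound to biotin-Kras, expressed in E. coli and loaded with GDP after purification, was monitored. Donors were excited at 680 nm; singlet oxygen reaching acceptors gave emission read at 520-620 nm.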
A general note: In Alpha technology, singlet oxygen from a donor bead excites a nearby acceptor bead.

The test system of assay [2] is Human pancreatic cancer cell line AsPC-1. Nature of the assay: Measurement of AsPC-1 cell growth inhibition (AsPC-1 CGI). It counts as cell-based. Particulars: 96 h. The gist of the method:
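AsPC-1 cells in 15% FBS RPMI-1640 were exposed to test compound for 96 hours at 37° C, with CellTiter-Glo as endpoint.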

T1 sequence (P01116 1-188 isoform P01116-2 G12D): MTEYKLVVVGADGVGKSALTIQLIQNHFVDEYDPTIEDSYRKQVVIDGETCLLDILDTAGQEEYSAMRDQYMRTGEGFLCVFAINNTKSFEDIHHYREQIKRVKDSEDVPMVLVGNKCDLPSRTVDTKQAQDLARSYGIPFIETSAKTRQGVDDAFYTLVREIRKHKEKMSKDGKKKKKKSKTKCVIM

The term IC50 denotes the point on the concentration scale where inhibition reaches its midpoint. As for `CCCOC[C@H]1C(=O)N(C)CC(=O)N[C@@H](CCc2ccc(C(F)(F)F)c(Cl)c2)C(=O)N2CCC[C@H]2C(=O)NC2(CCCC2)C(=O)N(C)[C@@H](C2CCCCC2)C(=O)N(C)[C@H](C(=O)N2CCOCC2)CC(=O)N(C)[C@@H](CC(F)(F)F)C(=O)N[C@@H]([C@@H](C)CC)C(=O)N(C)CC(=O)N(C)CC(=O)N1C` [Compound 445] ([NMeAbu(4,4,4-F3)]I[Sar][Sar][NMeS](Propyl)[Sar][hPhe(3-Cl-4-CF3)]P[Ac5c][NMeChg][NMeD]-Morpholide; lactam N-11), the IC50 in assay [1] was 0.67 nM; in assay [2], 100 to 500 nM.

Take `CC[C@H](C)[C@@H]1NC(=O)[C@H](CC(C)C)N(C)C(=O)C[C@@H](C(=O)N(C)C)N(C)C(=O)[C@H](C2CCCC2)N(C)C(=O)C2(CCCC2)NC(=O)[C@H](Cc2cccc(C)c2)N(C)C(=O)[C@H](CCc2ccc(C(F)(F)F)c(Cl)c2)NC(=O)CN(C)C(=O)[C@H](CC2CCCCC2)N(C)C(=O)[C@@H]2CCN2C(=O)[C@H](C)N(C)C1=O` [Compound 449] ([NMeL]I[NMeA][Aze][NMeCha][Sar][hPhe(3-Cl-4-CF3)][NMePhe(3-Me)][Ac5c][NMeGly(cPent)][NMeD]-NMe2; lactam N-11): the IC50 was 30 nM in assay [1] and 100 to 500 nM in assay [2].

On to `CC[C@H](C)[C@@H]1NC(=O)[C@H](C2CCCCC2)N(C)C(=O)C[C@@H](C)NC(=O)[C@H](C(C)C)N(C)C(=O)C2(CCCC2)NC(=O)[C@@H]2CCCN2C(=O)[C@H](CCc2ccc(C(F)(F)F)c(Cl)c2)NC(=O)CN(C)C(=O)[C@H](CC2CCCCC2)N(C)C(=O)CN(C)C(=O)CN(C)C1=O` [Compound 456] (cyclo([Ac5c][NMeV][d(β3hA)][NMeChg]I[Sar][Sar][NMeCha][Sar][hPhe(3-Cl-4-CF3)]P)), for which the IC50 in assay [1] was 34 nM; in assay [2], 100 to 500 nM.

As for `CC[C@H](C)[C@@H]1NC(=O)[C@H](C2CCC2)N(C)C(=O)C[C@@H](C(=O)N2C3CCC2COC3)N(C)C(=O)[C@H](C2CCCCC2)N(C)C(=O)C2(CCCC2)NC(=O)[C@@H]2CCCN2C(=O)[C@H](CCc2ccc(C(F)(F)F)c(Cl)c2)NC(=O)CN(C)C(=O)[C@H](CC2CCCC2)N(C)C(=O)CN(C)C(=O)CN(C)C1=O` [Compound 461] ([NMeGly(cBu)]I[Sar][Sar][NMeAla(cPent)][Sar][hPhe(3-Cl-4-CF3)]P[Ac5c][NMeChg][NMeD]-{3Oxa8azabicyclo(3.2.1)octane}; lactam N-11), the figures for the IC50 in assay [1] and in assay [2] were 1.2 nM and 100 to 500 nM, respectively.

For the compound `CCC[C@H]1C(=O)NC2(CCCC2)C(=O)N(C)[C@@H](C2CCCCC2)C(=O)N(C)[C@H](C(=O)N2CCCCC2)CC(=O)N(C)[C@@H](CC(C)C)C(=O)N[C@@H]([C@@H](C)CC)C(=O)N(C)CC(=O)N2CC[C@H]2C(=O)N(C)[C@@H](CC2CCCCC2)C(=O)N(C)CC(=O)N[C@@H](CCc2ccc(C(F)(F)F)c(Cl)c2)C(=O)N1C` [Compound 478] ([NMeL]I[Sar][Aze][NMeCha][Sar][hPhe(3-Cl-4-CF3)][NMeNva][Ac5c][NMeChg][NMeD]-Piperidide; lactam N-11), the values for the IC50 in assay [1] and in assay [2] were 3 nM and 100 to 500 nM, respectively.

For the compound `CC[C@H](C)[C@@H]1NC(=O)[C@H](CC(C)C)N(C)C(=O)C[C@@H](C(=O)N2CCCCC2)N(C)C(=O)[C@H](C2CCCCC2)N(C)C(=O)C2(CCCC2)NC(=O)[C@H](Cc2ccncc2)N(C)C(=O)[C@H](CCc2ccc(C(F)(F)F)c(Cl)c2)NC(=O)CN(C)C(=O)[C@H](CC2CCCCC2)N(C)C(=O)[C@@H]2CCN2C(=O)CN(C)C1=O` [Compound 480] ([NMeL]I[Sar][Aze][NMeCha][Sar][hPhe(3-Cl-4-CF3)][NMe4Pal][Ac5c][NMeChg][NMeD]-Piperidide; lactam N-11), the IC50 was 1.4 nM in assay [1] and 100 to 500 nM in assay [2].

For the compound `CC[C@H](C)[C@@H]1NC(=O)[C@H](C)N(C)C(=O)C[C@@H](C(=O)N2CCCCC2)N(C)C(=O)[C@H](C2CCCCC2)N(C)C(=O)C2(CCCC2)NC(=O)[C@@H]2CCCN2C(=O)[C@H](CCc2ccc(C(F)(F)F)c(F)c2)NC(=O)CN(C)C(=O)[C@H](CC2CCCCC2)N(C)C(=O)CN(C)C(=O)CN(C)C1=O` [Compound 491] ([NMeA]I[Sar][Sar][NMeCha][Sar][hPhe(3-F,4-CF3)]P[Ac5c][NMeChg][NMeD]-Piperidide; lactam N-11), the figures for the IC50 in assay [1] and in assay [2] were 0.35 nM and 100 to 500 nM, respectively.

Take `CC[C@H](C)[C@@H]1NC(=O)[C@H](COCC(F)(F)F)N(C)C(=O)C[C@@H](C(=O)N2CCCCC2)N(C)C(=O)[C@H](C2CCCCC2)N(C)C(=O)C2(CCCC2)NC(=O)[C@@H]2CCCN2C(=O)[C@H](CCc2ccc(C(F)(F)F)c(Cl)c2)NC(=O)CN(C)C(=O)[C@H](CC2CCCCC2)N(C)C(=O)CN(C)C(=O)CN(C)C1=O` [Compound 518] ([NMeS](Trifluoroethyl)I[Sar][Sar][NMeCha][Sar][hPhe(3-Cl-4-CF3)]P[Ac5c][NMeChg][NMeD]-Piperidide; lactam N-11): the figures for the IC50 in assay [1] and in assay [2] were 0.67 nM and 50 to 100 nM, respectively.

With `CC[C@H](C)[C@@H]1NC(=O)[C@H](CC(C)C)N(C)C(=O)C[C@@H](C)NC(=O)[C@H](C(C)C)N(C)C(=O)C2(CCC2)NC(=O)[C@@H]2CCCN2C(=O)[C@H](CCc2ccc(C(F)(F)F)c(Cl)c2)NC(=O)CN(C)C(=O)[C@H](CC2CCCCC2)N(C)C(=O)CN(C)C(=O)CN(C)C1=O` [Compound 520] (cyclo([Ac4c][NMeV][d(β3hA)][NMeL]I[Sar][Sar][NMeCha][Sar][hPhe(3-Cl-4-CF3)]P)), the IC50 in assay [1] is 17 nM; in assay [2], 100 to 500 nM.

Consider `CC[C@H](C)[C@@H]1NC(=O)[C@H](CC(C)C)N(C)C(=O)C[C@@H](C(=O)N2CCCCC2)N(C)C(=O)[C@H](C(C)C)N(C)C(=O)C2(CCCC2)NC(=O)[C@@H]2CCCN2C(=O)[C@H](CCc2ccc(C(F)(F)F)c(Cl)c2)NC(=O)CN(C)C(=O)[C@H](C2CCCCC2)N(C)C(=O)[C@@H]2CCN2C(=O)[C@H](C)N(C)C1=O` [Compound 526] ([NMeL]I[NMeA][Aze][NMeChg][Sar][hPhe(3-Cl-4-CF3)]P[Ac5c][NMeV][NMeD]-Piperidide; lactam N-11), for which the IC50 in assay [1] is 6.6 nM; in assay [2], 100 to 500 nM.

For `CC[C@H](C)[C@@H]1NC(=O)[C@H](C)N(C)C(=O)C[C@@H](C(=O)N2CCCCC2)N(CC)C(=O)[C@H](C2CCCC2)N(C)C(=O)C2(CCCC2)NC(=O)[C@@H]2CCCN2C(=O)[C@H](CCc2ccc(C(F)(F)F)c(Cl)c2)NC(=O)CN(C)C(=O)[C@H](CC2CCCCC2)N(C)C(=O)CN(C)C(=O)CN(C)C1=O` [Compound 532] ([NMeA]I[Sar][Sar][NMeCha][Sar][hPhe(3-Cl-4-CF3)]P[Ac5c][NMeGly(cPent)][NEtAsp]-Piperidide; lactam N-11), the IC50 in assay [1] is 0.48 nM; in assay [2], 50 to 100 nM.

Turning to `CO[C@H](C)[C@@H]1NC(=O)[C@H](CC(C)C)N(C)C(=O)C[C@@H](C(=O)N2CCCCC2)N(C)C(=O)[C@H](C2CCCCC2)N(C)C(=O)C2(CCCC2)NC(=O)[C@@H]2CCCN2C(=O)[C@H](CCc2ccc(C(F)(F)F)c(Cl)c2)NC(=O)CN(C)C(=O)[C@H](CC2CCCCC2)N(C)C(=O)CN(C)C(=O)CN(C)C1=O` [Compound 535] ([NMeL]T(Me)[Sar][Sar][NMeCha][Sar][hPhe(3-Cl-4-CF3)]P[Ac5c][NMeChg][NMeD]-Piperidide; lactam N-11), the results for the IC50 in assay [1] and in assay [2] were 0.65 nM and 50 to 100 nM, respectively.
